We go through 19 molecules from US8017348B1, “Assay for Parkinson's Disease therapeutics” (Elan Pharma International Limited, priority 2005, dated 2011).

One data set has as its system Parkin. Briefly: GFPu assay in HEK293 cells transfected with wild type Parkin (aggresome formation / proteasome function). In kind it is cell-based, human. The note with it: for aggresome formation (qualitative, GFPu screen): LOPAC screen hits. The method, then: A summary of the finalized automation scheme is outlined in FIG. 12. Briefly, cells were manually transfected with Parkin using the Fugene Reagent (Roche) and then incubated for three hours at 37° C. […] Compounds were then added to the cell plate at a final concentration of 10 uM using the Multimek™ Automated Pipettor. Compounds were incubated with cells for 45 hours at 37° C. and then the media was gently aspirated with the Multimek. A mixture of 1 ug/ml Hoechst dye and 4% paraformaldehyde were then added to the cells for 40 minutes at room temperature using the Titertek Multidrop™ Lab System. Cell plates were subsequently washed using the Tecan PowerWasher and then read on the Cellomcis ArrayScan. A detailed protocol outlining this process step by step is shown in Example 8.
This example describes a protocol for the GFPu Assay in 96-well format. It will be appreciated that the protocol can be readily modified for other multi-well formats and that certain parameters can vary. […] Dose-response curves are generated using methods known in the art. Typically, serial 2-fold or 3-fold dilutions (usually in the range 10 uM to 50 pM) are tested.
1) HEK293 cells stably expressing GFP are cultured in DMEM containing 10% FBS, glutamine 2 mM and G418 sulfate at 600 μg/ml.
2) HEK 293 cells are harvested using PBS containing 5 mM EDTA. 180 μl of HEK293 cells at 67,000 cells/ml are then plated onto Costar PDL coated plates (#3667). After seeding cells on the plate, we let them sit for 30 minutes at room temperature in the tissue culture hood before placing them back into the incubator. This treatment may help reduce edge effects and is optional.
3) Incubate the plate overnight at 37° C./5% CO2 in the incubator.
4) A typical transfection cocktail is created as follows: Mix 50 ml of serum free DMEM with 1.087 ml of Fugene and wait 5 minutes at room temperature. Next add 375 μg of Parkin DNA or control vector, gently mix and incubate 35-45 minutes at room temperature.
5) Add 20 μl of transfection cocktail to each well of the plate and place back in the incubator for three hours at 37° C.
6) Add 20 μl of compound to all relevant wells. Final in-well concentration for compound is 10 μM. The DMSO concentration final in-well is 0.2%. Compound plates are diluted using serum free DMEM.
7) Plates are then incubated for 45 hours at 37° C. and 5% CO2.
8) Aspirate media out of wells.
9) Add […] a mixture containing 1 μg/ml Hoechst dye and 4% paraformaldehyde in 0.1M NaPhosphate buffer for 40 minutes at room temperature.
10) Wash with PBS containing calcium and magnesium and leave 200 μl in well.
11) Read on the ArrayScan using the Target Activation Bioapplication. […]
(§1) Dose response curves were generated by exposing cells to compounds at various concentrations. […] “Hill” refers to the Hill Slope.

The test system of another data set is CFTR. Briefly: GFPu assay selectivity screen, cells transfected with CFTR. In kind it is cell-based. To be noted: 10 uM to about 78 nM.
Excerpt: (§2) The first is the RING finger ligase NRDP1 as a molecule structurally and functionally similar to Parkin. The second is the Cystic Fibrosis Transmembrane Conductance Regulator (CFTR) as a molecule that is a twelve-pass membrane channel protein, and structurally not related to Parkin.
as §1

In the next data set the test system is NRDP1. The data set is described as follows: GFPu assay selectivity screen, cells transfected with NRDP1. The note with it: for IC50: GFPu assay, NRDP1 transfected cells, 10 uM to about 78 nM, read-out: NRDP IC50. It counts as cell-based.
Excerpt: as §2, §1

A further data set deals with HEK293 cells. The data set is described as follows: Cytotoxicity (cell count) in HEK293 cells. To be noted: for cytotoxicity: HEK293 cells. An excerpt:
In terms of charactering cytotoxicity, compounds were given a low rating if the cell count was >75% of control levels, a medium rating if the cell count was between 50 and 75% of control wells, and a high rating if the cell count was less than 50% of control levels.

A further data set relates to aggresome formation. The note with it: Johnston et al., 1998; cited from earlier work.
The mark [1] stands for this setting: Homo sapiens, HEK293, GFPu assay, Parkin transfected cells, eight 2-fold dilutions 10 uM to about 78 nM, read-out: Parkin IC50.
[2] abbreviates: Parkin expressing HEK293 cells, read-out: IC50 in the GFPu assay.
The mark [3] stands for this setting: dose response, eight 2-fold dilutions 10 uM to about 78 nM.
Where [4] appears, read: Homo sapiens, Parkin expressing HEK293 cells, read-out: IC50 in the GFPu assay.

Where two headings read alike, the source gives them in different places.

`CC[C@]1(O)C[C@@H]2CN(CCc3c([nH]c4ccccc34)[C@@](C(=O)OC)(c3cc4c(cc3OC)N(C)[C@H]3[C@@](O)(C(=O)OC)[C@H](OC(C)=O)[C@]5(CC)C=CCN6CC[C@]43[C@@H]65)C2)C1` [ELN477062, vinblastine]: the IC50 with Parkin (setting [1]) was below 0.078 µM; in the data set with CFTR, above 10 µM; with NRDP1 it was above 10 µM. The “aggresome formation (qualitative, GFPu screen)” value in the data set with Parkin is on record as “inhibitors of aggresome formation”. Moreover, the TC50 in the data set with HEK293 cells (human) was below 0.078 µM.
On to `Cc1ccc(S(=O)(=O)N[C@@H](Cc2ccccc2)C(=O)CCl)cc1` [ELN477056, TPCK], for which the IC50 with Parkin (setting [2]) was 9.25 µM; in the data set with CFTR, above 10 µM; with NRDP1 it was 5.47 µM. The same molecule displayed a TC50 in the data set on HEK293 cells (setting [3]) above 10.
On to `O=C(O)CCCc1ccc(N(CCCl)CCCl)cc1` [ELN29018, chlorambucil], for which the IC50 in the data set with Parkin (setting [1]) is 7.25 µM; with CFTR it was above 10 µM. In addition, in the data set with Parkin, the “aggresome formation (qualitative, GFPu screen)” value is listed as “decreased aggresome formation”. In the data set on NRDP1 (@ 10), the “NRDP % @ 10” value amounted to 32% @ 10. Also, the “cytotoxicity” value with HEK293 cells is reported as “did not exhibit much cytotoxicity”. This molecule also had a TC50 in the data set on HEK293 cells (setting [3]) above 10.
As to `COc1cc2c(c(OC)c1OC)-c1ccc(OC)c(=O)cc1[C@@H](NC(C)=O)CC2` [ELN476311, colchicine], the “aggresome formation (qualitative, GFPu screen)” value in the data set with Parkin is given as “inhibitors of aggresome formation”. The molecule further returned a TC50 in the data set with HEK293 cells (setting [3]) below 0.078.
In the case of `O=C(N[C@@H](Cc1ccccc1)C(=O)CCl)OCc1ccccc1` [ELN476309, ZPCK], the half-maximal inhibitory concentration (IC50) in the data set on Parkin (GFPu assay, Parkin transfected cells, eight 2-fold dilutions 10 uM to about 78 nM, read-out: Parkin IC50) stood at 4.12 µM; in the data set on Parkin (setting [2]), 4.1 µM; with CFTR, 3.88 µM; with NRDP1 it was 0.26 µM. The TC50 with HEK293 cells turned out to be 10 µM.
In the case of `N[C@@H](Cc1ccc(N(CCCl)CCCl)cc1)C(=O)O` [ELN476469, melphalan], the IC50 was 6.06 µM in the data set on Parkin (setting [1]), above 10 µM with CFTR and above 10 µM in the data set on NRDP1. Moreover, the “aggresome formation (qualitative, GFPu screen)” value in the data set with Parkin is “decreased aggresome formation”. Besides, the “cytotoxicity” value in the data set on HEK293 cells was “did not exhibit much cytotoxicity”. The molecule also registered a TC50 in the data set on HEK293 cells (setting [3]) above 10.
Take `CC[C@]1(O)C[C@H]2CN(CCc3c([nH]c4ccccc34)[C@@](C(=O)OC)(c3cc4c(cc3OC)N(C=O)[C@H]3[C@@](O)(C(=O)OC)[C@H](OC(C)=O)[C@]5(CC)C=CCN6CC[C@]43[C@@H]65)C2)C1` [ELN477063, vincristine]: the IC50 in the data set on Parkin (setting [1]) was below 0.078 µM; in the data set with CFTR, above 10 µM; with NRDP1, above 10 µM. Further, in the data set with Parkin, the “aggresome formation (qualitative, GFPu screen)” value was “inhibitors of aggresome formation”. The TC50 in the data set with HEK293 cells (human) is below 0.078 µM.
Consider `O=c1c(O)c(-c2cc(O)c(O)c(O)c2)oc2cc(O)cc(O)c12` [ELN476493, myricetin], for which the IC50 in the data set on Parkin (setting [1]), with CFTR and in the data set on NRDP1 was above 10 µM throughout. For the same molecule, the inhibition at 10 µM in the data set on Parkin (Homo sapiens, HEK293, at 10 μM, LOPAC screen) is 59%. Also, the “% inhibition upon dose-response curve follow-up” value in the data set on Parkin (dose-response curve follow-up, 40% inhibition threshold) is below 40%. For the same molecule, the TC50 in the data set on HEK293 cells (human) is above 10 µM.
On to `COc1cc([C@@H]2c3cc4c(cc3[C@H](O)[C@H]3COC(=O)[C@H]23)OCO4)cc(OC)c1OC` [ELN476767, podophyllotoxin], for which the IC50 in the data set with Parkin (setting [1]) was below 0.078 µM; in the data set with Parkin (setting [4]) it was below 0.078 µM; in the data set with CFTR, above 10 µM; in the data set on NRDP1, above 10 µM. Also, the “aggresome formation (qualitative, GFPu screen)” value in the data set with Parkin is reported as “inhibitors of aggresome formation”. The same molecule had a TC50 in the data set on HEK293 cells (setting [3]) below 0.078.
In the case of `COc1cc2c(c(OC)c1OC)-c1ccc(OC)c(=O)cc1[C@@H](NC(C)=O)CC2` [colchicine], in the data set with aggresome formation, the “aggresome formation (literature)” value is on record as “completely abrogated aggresome formation”.
For `O=C1c2c(O)ccc(O)c2C(=O)c2c(NCCNCCO)ccc(NCCNCCO)c21` [ELN476491, mitoxantrone], the IC50 was below 0.078 µM in the data set with Parkin (setting [1]), below 0.078 µM in the data set with Parkin (setting [4]), 1.58 µM in the data set with CFTR and 1.5 µM in the data set on NRDP1. Moreover, the TC50 in the data set with HEK293 cells (human) turned out to be 6.53 µM.
`O=c1[nH]cc(F)c(=O)[nH]1` [ELN29019, 5-fluoruracil]: the IC50 is 9 µM in the data set on Parkin (setting [2]), above 10 µM in the data set on CFTR and 1.6 µM in the data set with NRDP1. The molecule also had a TC50 with HEK293 cells above 10 µM.
For the molecule `CN(Cc1cnc2nc(N)nc(N)c2n1)c1ccc(C(=O)N[C@@H](CCC(=O)O)C(=O)O)cc1` [ELN476809, methotrexate], the half-maximal inhibitory concentration (IC50) was below 0.078 µM in the data set with Parkin (setting [1]), below 0.078 µM with Parkin (setting [4]), above 10 µM with CFTR and 0.156 µM in the data set on NRDP1. In addition, in the data set on HEK293 cells (human), the TC50 is above 10 µM.
Turning to `CC[C@]1(O)C[C@@H]2CN(CCc3c([nH]c4ccccc34)[C@@](C(=O)OC)(c3cc4c(cc3OC)N(C)[C@H]3[C@@](O)(C(=O)OC)[C@H](OC(C)=O)[C@]5(CC)C=CCN6CC[C@]43[C@@H]65)C2)C1` [vinblastine], the “aggresome formation (literature)” value in the data set on aggresome formation is “completely abrogated aggresome formation”.
Take `Nc1ncn([C@@H]2O[C@H](CO)[C@@H](O)[C@H]2O)c(=O)n1` [ELN476201, 5-azacytidine]: the IC50 with Parkin (setting [1]) is 5.36 µM; with Parkin (setting [4]) it was 5.36 µM; in the data set with CFTR it was above 10 µM; with NRDP1, 5.81 µM. This molecule also gave a TC50 in the data set on HEK293 cells (human) above 10 µM.
With `COC[C@H]1OC(=O)c2coc3c2[C@@]1(C)C1=C(C3=O)[C@@H]2CCC(=O)[C@@]2(C)C[C@H]1OC(C)=O` [ELN476646, Wortmannin], the concentration for half-maximal inhibition (IC50) is 0.75 µM with Parkin (setting [1]), 0.75 µM in the data set on Parkin (setting [4]), above 10 µM in the data set with CFTR and above 10 µM with NRDP1. In the data set on HEK293 cells (human), the TC50 turned out to be 1.9 µM.
In the case of `COC(=O)Nc1nc2ccc(C(=O)c3cccs3)cc2[nH]1` [nocodazol], the “aggresome formation (literature)” value with aggresome formation was “completely abrogated aggresome formation”.
On to `COC(=O)Nc1nc2ccc(C(=O)c3cccs3)cc2[nH]1` [ELN475312, nocodazol], for which the IC50 in the data set on Parkin (setting [1]) was 1.07 µM; in the data set with CFTR, above 10 µM; with NRDP1, above 10 µM. Besides, the “aggresome formation (qualitative, GFPu screen)” value with Parkin is listed as “inhibitors of aggresome formation”. In the data set on HEK293 cells (human), this molecule registered a TC50 below 0.078 µM.
Regarding `CC(=O)O[C@H]1C(=O)[C@@]2(C)[C@H]([C@H](OC(=O)c3ccccc3)[C@]3(O)C[C@H](OC(=O)[C@H](O)[C@@H](NC(=O)c4ccccc4)c4ccccc4)C(C)=C1C3(C)C)[C@]1(OC(C)=O)CO[C@@H]1C[C@@H]2O` [ELN476780, taxol], the IC50 in the data set with Parkin (setting [1]) is below 0.156 µM; with Parkin (setting [4]), below 0.078 µM; in the data set on CFTR it was above 10 µM; with NRDP1 it was above 10 µM. In addition, the “aggresome formation (qualitative, GFPu screen)” value with Parkin was “inhibitors of aggresome formation”. The molecule also gave a TC50 with HEK293 cells (human) below 0.078 µM.
